Experimental data from US20100028485A1, “TALAROMYCES EMERSONII ENZYME SYSTEMS” (priority 2006, published 2010).
“Also recorded” adds a separate entry of the source. Blank lines part the entries; values can stand above or below the molecule they belong to.

Experiments:
Format in all cases: biochemical, Talaromyces emersonii
EG V = assay: Effects of metal ions, chemical modification reagents, detergents and potential inhibitors on EG V; conditions: for EG V activity, Enzyme + reagent (control = 100.0): Preincubation of enzyme with reagent for 30 min (50 C) prior to addition of substrate; for EG V activity, Substrate + reagent (control = 100.0): Preincubation of substrate with reagent for 30 min (50 C) prior to addition of enzyme
Procedure: (§1) Substrate specificity on various polysaccharides and synthetic glycosides was evaluated by 15 measuring activity against a wide variety of carbohydrates (BBG, lichenan, CMC, other polysaccharides and synthetic glycosides) using the normal β-glucanase assay procedure. • Effects Of Metal Ions, Chemical Modification Reagents And Potential Inhibitors A range of monovalent, divalent and heavy metal ions, at final assay concentrations of 1.0 mM, were investigated for their potential effects on the activities of EG V, EG VI and EG VII, by incubating the enzymes with the chemicals and then conducting the normal enzyme assay. Finally, the inhibitor effects of glycosides, such as disaccharides, lactones and flavanoid glycosides on the purified enzymes were examined. Specified concentrations of each glycoside were included in normal assay cocktails and residual activity determined by comparison with controls (no glycoside present).
(§2) Activity was expressed as a % relative to a control (no metal ion present in incubation mixture). In general, heavy metal ions are thought to inactivate enzymes by forming covalent salts with cysteine, histidine or carboxyl groups. […] A selection of reagents known to modify amino acid R-groups in proteins were tested for their effects on EG V, EG VI and EG VII, both in the absence and presence of substrate (substrate-protective effects could be observed in this manner) (see Table 6).

EG V, EG VI and EG VII = assay: Effects of metal ions, reagents, phenolics and glycosides stated for all three enzymes; conditions: for inhibition by sulphydryl reagents: in the presence or absence of substrate; for effect of phenolic substances on enzyme activity: pre-incubation of enzyme with compound in the absence of substrate
Procedure: as §1, §2

EG VI = assay: Effects of metal ions, chemical modification reagents, detergents and potential inhibitors on EG VI; conditions: for decrease in activity of EG VI: 1 mM metal ion, relative to control without metal ion; for EV VI activity, Enzyme + reagent (control = 100.0): Preincubation of enzyme with reagent for 30 min (50 C) prior to addition of substrate; for EGVI activity, Substrate + reagent (control = 100.0): Preincubation of substrate with reagent for 30 min (50 C) prior to addition of enzyme
Procedure: as §1, §2

EG VII = assay: Effects of metal ions, chemical modification reagents, detergents and potential inhibitors on EG VII; conditions: for EG VII activity, Enzyme + reagent (control = 100.0): Preincubation of enzyme with reagent for 30 min (50 C) prior to addition of substrate; for EG VII activity, Substrate + reagent (control = 100.0): Preincubation of substrate with reagent for 30 min (50 C) prior to addition of enzyme
Procedure: as §1, §2

decrease in activity of all three enzymes (EG V, EG VI and EG VII; 1 mM metal ion): 35.4-88.0% | effect of metal ion on activity of all three enzymes (EG V, EG VI and EG VII; 1 mM metal ion): markedly decreased activity
SMILES: [Fe+2] [Fe^2+]
increase in activity of EG V (EG V; 1 mM metal ion, relative to control without metal ion): 20% | decrease in activity of EG VI (EG VI): 38.6% | decrease in activity of EG VI (EG VI; listed as Fe^3+): 53.6-59.3% | enhancement of EG VII activity by SO4^2− salt relative to corresponding Cl^− salt (EG VII; 1 mM): ~4.5 fold | effect of metal ion on EG VII (EG VII; 1 mM metal ion): minimum effects

SMILES: NC(=O)CI [Iodoacetamide]
EG V activity, Enzyme + reagent (control = 100.0) (EG V): 103.6 | EG V activity, Substrate + reagent (control = 100.0) (EG V): 87.4 | inhibition by sulphydryl reagents (EG V, EG VI and EG VII): little or no inhibition | EV VI activity, Enzyme + reagent (control = 100.0) (EG VI): 99.9 | EGVI activity, Substrate + reagent (control = 100.0) (EG VI): 122.6 | EG VII activity, Enzyme + reagent (control = 100.0) (EG VII): 101.6 | EG VII activity, Substrate + reagent (control = 100.0) (EG VII): 83.7

effect of metal ion on activity of all three enzymes (EG V, EG VI and EG VII; 1 mM metal ion): enhanced the activity
SMILES: [Mg+2] [Mg^2+]
decrease of EG V activity by SO4^2− salt relative to Cl^− salt of same cation (EG V; 1 mM): 54.2% | decrease of EG VI activity by SO4^2− salt relative to Cl^− salt of same cation (EG VI; 1 mM): 50.1%

SMILES: O=C(O)c1cc[c]([Hg+])cc1.[OH-] [p-Hydroxymercuribenzoate]
EG V activity, Enzyme + reagent (control = 100.0) (EG V): 92.8 | EG V activity, Substrate + reagent (control = 100.0) (EG V): 261.7 | inhibition by sulphydryl reagents (EG V, EG VI and EG VII): little or no inhibition | EV VI activity, Enzyme + reagent (control = 100.0) (EG VI): 98.3 | EGVI activity, Substrate + reagent (control = 100.0) (EG VI): 125.0 | EG VII activity, Enzyme + reagent (control = 100.0) (EG VII): 99.5 | EG VII activity, Substrate + reagent (control = 100.0) (EG VII): 94.8

SMILES: COc1cc(C(=O)O)cc(OC)c1O [syringic acid]
effect of phenolic substances on enzyme activity (EG V, EG VI and EG VII): did not have a marked inhibitory effect; also recorded: markedly activated

effect of phenolic substances on enzyme activity (EG V, EG VI and EG VII): potent inhibitor
SMILES: O=C(OC[C@H]1O[C@@H](OC(=O)c2cc(O)c(O)c(OC(=O)c3cc(O)c(O)c(O)c3)c2)[C@H](OC(=O)c2cc(O)c(O)c(OC(=O)c3cc(O)c(O)c(O)c3)c2)[C@@H](OC(=O)c2cc(O)c(O)c(OC(=O)c3cc(O)c(O)c(O)c3)c2)[C@@H]1OC(=O)c1cc(O)c(O)c(OC(=O)c2cc(O)c(O)c(O)c2)c1)c1cc(O)c(O)c(OC(=O)c2cc(O)c(O)c(O)c2)c1 [tannic acid]
